Biological target: T1, human TPO receptor (hTPOR) (Homo sapiens, UniProt P40238)
T1 construct: expressed in transfected cells; host or cells: BaF-B03 (murine IL-3 dependent cell line)
T1 sequence (P40238 26-635): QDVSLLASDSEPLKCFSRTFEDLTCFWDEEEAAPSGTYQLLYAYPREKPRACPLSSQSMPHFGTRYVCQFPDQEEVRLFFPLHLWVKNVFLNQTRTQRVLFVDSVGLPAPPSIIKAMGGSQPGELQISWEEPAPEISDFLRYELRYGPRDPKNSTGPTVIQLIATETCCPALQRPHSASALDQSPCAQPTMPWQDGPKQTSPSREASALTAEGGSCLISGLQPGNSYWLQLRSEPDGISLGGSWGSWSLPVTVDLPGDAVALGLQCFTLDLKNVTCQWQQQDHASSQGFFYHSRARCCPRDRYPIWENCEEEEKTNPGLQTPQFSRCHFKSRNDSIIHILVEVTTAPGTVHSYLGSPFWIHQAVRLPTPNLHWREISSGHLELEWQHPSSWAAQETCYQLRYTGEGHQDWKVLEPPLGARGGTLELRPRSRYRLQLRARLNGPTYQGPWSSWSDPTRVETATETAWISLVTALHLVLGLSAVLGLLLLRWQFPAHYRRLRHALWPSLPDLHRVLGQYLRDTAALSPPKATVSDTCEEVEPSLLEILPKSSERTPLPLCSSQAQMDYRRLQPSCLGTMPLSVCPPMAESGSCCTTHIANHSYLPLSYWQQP
Assay: Thrombopoietic activity: proliferation of TPO dependent BaF/hTPOR cells (WST-1, absorbance at 450 nm)
Format: cell-based
Details: 20 h + 4 h WST-1, ED50 = half concentration of the concentration showing the maximum thrombopoietic activity
From the text: The TPO dependent BaF/hTPOR cell line which was established by introducing human TPO receptor (hTPOR) into BaF-B03 cells according to Collins et al (J. Cell. Physiol., 137:293-298 (1988)) was used to test the thrombopoietic activity of the present compound. The DNA sequences and encoded peptide sequences for human hTPOR have been described by Vigon et al (Proc. Natl. Acad. Sci. USA, 89:5640-5644 (1992)). TPO dose not have any ability to support proliferation of interlukin-3 dependent parental cell line BaF-B03. BAF/hTPOR cells were maintained in RPMI medium and WEHI-3B conditioned medium as a source of murine interleukin-3 (IL-3). These cells were washed and resuspended in RPMI medium without a source of murine IL-3 and seeded into each well of 96-well microtiter plates at a density of 5×10^4 cells per well in the absence or presence of various concentration of hTPO or the present compound. After incubation at 37° C. for 20 hours in the 5% CO2 incubator, 10% WST-1 reagent (Takara Biomedicals, Japan) was added to each wells and the cells were further incubated for 4 hours. The absorbance at 450 nm was measured. Tables 1 and 2 exemplify the ED50 for tested compounds of the present invention, wherein the ED50 is the half concentration of the concentration showing the maximum thrombopoietic activity.

Compound	EC50 (Table 1)	EC50 (Table 2)
CCC(CC)COCCCc1cccc(-c2csc(NC(=O)c3cc(F)c(/C=C(\C)C(=O)O)c(F)c3)n2)c1OC [Compound B1848, (E)-3-[4-(4-{3-[3-(2-ethylbutyloxy)propyl]-2-methyloxyphenyl}thiazol-2-ylcarbamoyl)-2,6-difluorophenyl]-2-methylacrylic acid]	15.9 nM	
CO/C(=C\c1c(F)cc(C(=O)Nc2nc(-c3cccc(CCCOCC(C)(C)C)c3)c(OC)s2)cc1F)C(=O)O [Compound B1900, (Z)-3-[4-(4-{3-[3-(2,2-dimethylpropyloxy)propyl]phenyl}-5-methyloxythiazol-2-ylcarbamoyl)-2,6-difluorophenyl]-2-methyloxyacrylic acid]		23.2 nM
CC(=Cc1c(F)cc(C(=O)Nc2nc3c(s2)CCc2c(CCCOC(C)C)cccc2-3)cc1F)C(=O)O [Compound A7, 3-{2,6-difluoro-4-[4,5-dihydro-6-(3-isopropyloxypropyl)naphtho[1,2-d]thiazol-2-ylcabamoyl]phenyl}-2-methylacrylic acid]	2.26 nM	
COC(CCC(C)C)c1cccc(-c2csc(NC(=O)c3cc(Cl)c(C=C(C)C(=O)O)c(Cl)c3)n2)c1F (stereo not shown) [Compound B60, 3-(2,6-dichloro-4-{4-[2-fluoro-3-(1-methyloxy-4-methylpentyl)phenyl]thiazol-2-ylcarbamoyl}phenyl)-2-methylacrylic acid]	0.75 nM	
CCc1cccc2c1OCc1sc(NC(=O)c3cc(Cl)c(/C=C(\C)C(=O)O)c(Cl)c3)nc1-2 [Compound A1310, (E)-3-[2,6-dichloro-4-(6-ethyl-4H-chromeno[4,3-d]thiazol-2-ylcabamoyl)phenyl]-2-methylacrylic acid]	12.3 nM	
CCCCCCOCc1cccc(-c2csc(NC(=O)c3cc(Cl)c(/C=C(\C)C(=O)O)c(Cl)c3)n2)c1OC [Compound B1993, (E)-3-{2,6-dichloro-4-[4-(3-hexyloxymethyl-2-methyloxyphenyl)thiazol-2-ylcarbamoyl]phenyl}-2-methylacrylic acid]	13.9 nM	
CCCC(CCC)(OC)c1cccc(-c2csc(NC(=O)c3cc(F)c(C=C(C)C(=O)O)c(F)c3)n2)c1F [Compound B8]	4 nM	
CCCCCCC(OC)c1cccc(-c2csc(NC(=O)c3cc(F)c(C=C(C)C(=O)O)c(F)c3)n2)c1F (stereo not shown) [Compound B23, 3-(2,6-difluoro-4-{4-[2-fluoro-3-(1-methyloxyheptyl)phenyl]thiazol-2-ylcarbamoyl}phenyl)-2-methylacrylic acid]	1.23 nM	
COC(=Cc1c(F)cc(C(=O)Nc2nc(-c3cccc(COCC(C)(C)C)c3OC)cs2)cc1F)C(=O)O (stereo in doubt) [Compound B2020, (E)-3-(4-{4-[3-(2,2-dimethylpropyloxymethyl)-2-methyloxyphenyl]thiazol-2-ylcarbamoyl}-2,6-difluorophenyl)-2-methyloxyacrylic acid]	10.9 nM	
CCCCCCCOc1cccc(-c2csc(NC(=O)c3cc(Cl)c(/C=C(\OC)C(=O)O)c(Cl)c3)n2)c1OC [Compound B2001, (Z)-3-{2,6-dichloro-4-[4-(3-heptyloxy-2-methyloxyphenyl)thiazol-2-ylcarbamoyl]phenyl}-2-methyloxyacrylic acid]	19.4 nM	
CC(=Cc1c(F)cc(C(=O)Nc2nc(-c3cccc(CCCOCCC(C)(C)C)c3F)cs2)cc1F)C(=O)O [Compound B40, 3-[2,6-difluoro-4-(4-{3-[3-(3,3-dimethylbutyloxy)propyl]-2-fluorophenyl}thiazol-2-ylcarbamoyl)phenyl]-2-methylacrylic acid]	0.88 nM	
COc1c(CCCOCCC(C)(C)C)cccc1-c1csc(NC(=O)c2cc(F)c(/C=C(\C)C(=O)O)c(F)c2)n1 [Compound B521, (E)-3-[4-(4-{3-[3-(3,3-dimethylbutyloxy)propyl]-2-methyloxyphenyl}thiazol-2-ylcarbamoyl}-2,6-difluorophenyl)-2-methylacrylic acid]	16.9 nM	
CCC(CCCc1cccc(-c2csc(NC(=O)c3cc(F)c(C=C(C)C(=O)O)c(F)c3)n2)c1F)OC (stereo not shown) [Compound B12, 3-(2,6-difluoro-4-{4-[2-fluoro-3-(4-methyloxyhexyl)phenyl]thiazol-2-ylcarbamoyl}phenyl)-2-methylacrylic acid]	2.1 nM	
